Assays:
[1] = biological target: T1, OsTIR1(F74G)/mAID-EGFP-NLS expressing cell (Oryza sativa subsp. japonica, UniProt Q7XVM8, F74G); assay: FACS analysis of mAID-EGFP-NLS reporter degradation in OsTIR1(F74G) expressing HCT116 cell; assay type: cell-based, human
T1 construct: expressed in transfected cells; host or cells: HCT116 (human colon adenocarcinoma-derived cell)
Description: (§1) An HCT116 cell (human colon adenocarcinoma-derived cell) having DNA in which an OsTIR1(WT) or OsTIR1(F74G) and an mAID-EGFP (green fluorescent protein)-NLS (nuclear localization signal) were encoded through a P2A sequence inserted onto a chromosome by a transposon (hereinafter, referred to as “OsTIR1(WT)/mAID-EGFP-NLS expressing cell” or “OsTIR1(F74G)/mAID-EGFP-NLS expressing cell”) was prepared (refer to FIG. 1).
(§2) The auxin analog (concentration in culture medium: 0, 200 μM) was added to the OsTIR1(F74G)/mAID-EGFP-NLS expressing cell and cultured for 24 hours. In addition, as a control, a cell containing an auxin added to the OsTIR1(WT)/mAID-EGFP-NLS expressing cell was also prepared.
(§3) After 24 hours from the addition of the auxin analog, the cells were collected, and FACS analysis was performed.
(§4) Furthermore, the same experiment was performed by adding 100 μM of an auxin to the OsTIR1(WT)/mAID-EGFP-NLS expressing cell, adding 1 μM of 5-Ph-IAA to the OsTIR1(F74G)/mAID-EGFP-NLS expressing cell, collecting the cells after four hours, and performing FACS analysis.
(§5) In order to compare OsTIR1(WT) and OsTIR1(F74G) in more detail, the degradation of the mAID-EGFP-NLS reporter was induced using IAA (auxin) and 5-Ph-IAA in different doses, respectively (refer to FIG. 10(A)). […] DC 50 values (concentrations for 50% degradation) were 300±30 nM and 0.45±0.01 nM in OsTIR1(WT) and OsTIR1(F74G), respectively, and it was confirmed that the system in which 5-Ph-IAA was used functioned at an approximately 670-times lower concentration compared with conventional auxin-inducible degron systems.
In order to investigate dynamics over time attributed to the removal of a target protein, samples after a lapse of time were taken, and the expression levels of the reporter were observed (refer to FIG. 10(B)). […]

mAID-EGFP-POLD1 = biological target: T2, mAID-EGFP-POLD1 (Oryza sativa subsp. japonica, UniProt Q7XVM8, F74G); assay: Western blotting of mAID-EGFP-POLD1 degradation in HeLa cell (transposon vector + CRISPR-KO); assay type: cell-based, human; conditions: anti-POLD1 antibody, clones #1 to #3
T2 construct: P2A linker (self-cleaving; remnant); expressed in transfected cells; host or cells: HeLa; transposon vector plus CRISPR-KO vector
Text: (§6) In this degradation system, (1) a transposon vector in which an OsTIR1(F74G) gene and an mAID-target gene are connected by a P2A linker gene and (2) a CRISPR-KO vector for knocking out an endogenous target gene containing gRNA and a Cas9 gene are contained.
(§7) In this degradation system, the OsTIR1(F74G) gene and the mAID-target gene in a genome are integrated by the transposon vector, and an endogenous target gene is knocked out by the CRISPR-KO vector.
(§8) The transposon vector in which an OsTIR1(F74G) gene and an mAID-EGFP-CENPH or mAID-EGFP-POLD1 target gene were connected by a P2A linker gene was constructed, and this vector was introduced into a HeLa cell together with the CRISPR-KO vector targeting an endogenous CENPH or POLD1 gene. 5-Ph-IAA was added to such a cell, and the degradation of the target protein was confirmed by Western blotting (FIG. 6).

[2] = biological target: T3, OsTIR1(F74A)/mAID-EGFP-NLS expressing cell (Oryza sativa subsp. japonica, UniProt Q7XVM8, F74A); assay: FACS analysis of mAID-EGFP-NLS reporter degradation in OsTIR1(F74A) expressing cell clones; assay type: cell-based, human
T3 construct: expressed in transfected cells
Description: Furthermore, the same experiment was also performed on three clones using an OsTIR1(F74A)/mAID-EGFP-NLS expressing cell.

[3] = biological target: T4, OsTIR1(F74G)/DHC1-mAID-Clover expressing cell (Oryza sativa subsp. japonica, UniProt Q7XVM8, F74G); assay: Degradation induction test of DHC1 (microscopy, Western blotting); assay type: cell-based, human
T4 construct: expressed in transfected cells; host or cells: HCT116; OsTIR1(F74G) gene at the AAVS1 locus; endogenous DHC1 tagged by CRISPR/Cas9 homologous recombination
Description: A plasmid vector having mAID, clover and a neomycin resistance gene and having a homologous sequence with respect to a DHC1 gene so as to sandwich mAID and the neomycin resistance gene was introduced into the OsTIR1(WT)-expressing HCT116 cell or OsTIR1(F74G)-expressing HCT116 cell using a CRISPR/Cas9 system, and homologous recombination with the endogenous DHC1 gene was performed. Next, after selection by G418, the formed colony was dyed using crystal violet. “DHC1” is the abbreviation for dynein heavy chain 1.
A degradation induction test of DHC1 was performed using the HCT116 cell expressing OsTIR1(F74G) on which homologous recombination had been performed in the above-described section 2 (hereinafter, referred to as “OsTIR1(F74G)/DHC1-mAID-Clover expressing cell”).
The compound indicated by the formula (I-2) (also referred to as 5-Ph-IAA) was added to the OsTIR1(F74G)/DHC1-mAID-Clover expressing cell, and the appearance of the cell after 24 hours was observed (FIG. 4(A)).
Furthermore, the degradation of DHC1 was confirmed by Western blotting (FIG. 4(B)).
A CRISPR plasmid for adding a degron tag and two donors each having a neomycin-resistant marker or a hygromycin-resistant marker were transfected into a parent cell line constitutively expressing OsTIR1(WT or F74G) (refer to FIG. 14). In an OsTIR1(F74G) expressing cell, a colony was formed in the presence of G418 and hygromycin, and tags were added to DHC1 genes at both alleles (refer to FIG. 15(A)). In a cell expressing OsTIR1(WT), no colony was formed. […] This coincides with the fact that DHC1 is essential for the formation of a spindle that is formed during mitosis.

HCT116 cell = assay: Influence of 5-Ph-IAA treatment on HCT116 cell (cell cycle, colony formation); assay type: cell-based, human; conditions: 1 μM
Description: As shown in FIG. 9(A) in which the influence of the treatment with 1 μM of 5-Ph-IAA on the HCT116 cell was investigated, no influence was shown on the cell cycle. As shown in FIG. 9(B), no change in the colony formation efficiency was shown. It was confirmed that 5-Ph-IAA is an effective ligand and has no toxicity at 1 μM.

mAID-EGFP-CENPH = biological target: T5, mAID-EGFP-CENPH (Oryza sativa subsp. japonica, UniProt Q7XVM8, F74G); assay: Western blotting of mAID-EGFP-CENPH degradation in HeLa cell (transposon vector + CRISPR-KO); assay type: cell-based, human; conditions: anti-CENPH antibody
T5 construct: P2A linker (self-cleaving; remnant); expressed in transfected cells; host or cells: HeLa; transposon vector plus CRISPR-KO vector
Text: as §6, §7, §8

[4] = biological target: T6, RAD21-mAID-Clover (RAD21-mAC) cell expressing OsTIR1(F74G) (Oryza sativa subsp. japonica, UniProt Q7XVM8, F74G); assay: RAD21-mAC degradation in HCT116 cell expressing OsTIR1(F74G); assay type: cell-based, human
T6 construct: expressed in transfected cells; host or cells: human HCT116 constantly expressing OsTIR1(F74G); RAD21 tagged by genome editing
Description: (§9) A human HCT116 cell constantly expressing OsTIR1(F74G) was used as a material, an RAD21-mAID-Clover (RAD21-mAC) cell was generated by genome editing, and an effect of the addition of 5-Ph-IAA was confirmed. As shown in FIGS. 13(A) and (B), the expression level of RAD21-mAC was […] in a cell expressing OsTIR1(F74G) than in a cell expressing OsTIR1(WT) at 0 minutes before addition, and basal degradation was shown in conventional AID systems.

[5] = biological target: T7, SMC2, CTCF and POLR2A to which mAID is added (Oryza sativa subsp. japonica, UniProt Q7XVM8, F74G); assay: Degradation of mAID fused SMC2, CTCF and POLR2A in HCT116 constitutively expressing OsTIR1(F74G); assay type: cell-based, human; conditions: 1 μM
T7 construct: expressed in transfected cells; host or cells: HCT116 constitutively expressing OsTIR1(F74G); endogenous genes tagged
Text: Regarding aSMC2 condensin complex, a CTCF insulator protein or the maximum subunit of RNA polymerase 2 (POLR2A) in which it was difficult to produce an AID cell line using an HCT116 cell constantly expressing OsTIR1(WT), whether or not a cell line can be generated with a cell constitutively expressing OsTIR1(F74G) was examined.

[6] = system: yeast strains with mAID tag on MCM10, SLD3 or CDC45; assay: Growth of mAID-tagged yeast strains expressing OsTIR1(WT, F74G or F74A) on plates; assay type: cell-based
Text: In order to confirm that the AID2 system functions even in yeasts, OsTIR1(WT, F74G or F74A) was introduced into a URA3 gene locus under the control of a GAL1-10 promoter (refer to FIG. 12(A)). After that, an mAID tag was attached to a gene that encodes MCM10, SLD3 or CDC45, which is an essential replication initiator.

[7] = biological target: T8, OsTIR1(WT)/mAID-EGFP-NLS expressing cell (Oryza sativa subsp. japonica, UniProt Q7XVM8); assay: FACS analysis of mAID-EGFP-NLS reporter degradation in OsTIR1(WT) expressing HCT116 cell (conventional system); assay type: cell-based, human
T8 construct: expressed in transfected cells; host or cells: HCT116 (human colon adenocarcinoma-derived cell)
Description: as §1, §2, §3, §4, §5
In order to investigate dynamics over time attributed to the removal of a target protein, samples after a lapse of time were taken, and the expression levels of the reporter were observed (refer to FIG. 10(B)).

[8] = biological target: T9, RAD21-mAID-Clover (RAD21-mAC) cell expressing OsTIR1(WT) (Oryza sativa subsp. japonica, UniProt Q7XVM8); assay: RAD21-mAC degradation in HCT116 cell expressing OsTIR1(WT); assay type: cell-based, human; conditions: after the addition of a ligand
T9 construct: expressed in transfected cells; host or cells: RAD21-mAC cell expressing OsTIR1(WT) (HCT116 implied)
T9 sequence (Q7XVM8 1-575): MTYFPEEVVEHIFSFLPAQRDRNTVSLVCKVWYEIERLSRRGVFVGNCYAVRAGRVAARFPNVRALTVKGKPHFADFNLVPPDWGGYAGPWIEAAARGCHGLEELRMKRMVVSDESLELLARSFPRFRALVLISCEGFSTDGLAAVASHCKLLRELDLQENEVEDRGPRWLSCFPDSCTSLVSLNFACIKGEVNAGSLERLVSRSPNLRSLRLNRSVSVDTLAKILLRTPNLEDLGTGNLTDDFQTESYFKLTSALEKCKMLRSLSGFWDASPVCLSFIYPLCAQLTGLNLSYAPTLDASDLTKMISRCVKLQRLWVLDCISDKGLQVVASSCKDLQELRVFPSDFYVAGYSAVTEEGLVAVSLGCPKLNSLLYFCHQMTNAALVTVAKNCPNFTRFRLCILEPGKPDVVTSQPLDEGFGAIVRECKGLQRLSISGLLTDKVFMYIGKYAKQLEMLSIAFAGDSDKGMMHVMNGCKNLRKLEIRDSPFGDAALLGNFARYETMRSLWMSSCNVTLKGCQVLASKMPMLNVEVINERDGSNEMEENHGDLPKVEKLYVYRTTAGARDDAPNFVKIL
Description: as §9

O=C(O)Cc1c[nH]c2ccc(-c3ccccc3)cc12 [5-Ph-IAA, 5-phenyl-indole 3-acetic acid]
effect of inducing the degradation of the mAID-EGFP-NLS reporter ([1]; 1 nM and 10 nM, compared with the other auxin analogs): stronger effect
degradation of mAID-EGFP-NLS reporter ([1]; 1 μM, four hours): efficiently degraded
half-life of reporter degradation ([1]; AID2 system, OsTIR1(F74G)): 62.3 ± 2.0 min
times lower concentration compared with conventional auxin-inducible degron systems ([1]; DC50 OsTIR1(WT)/IAA versus OsTIR1(F74G)/5-Ph-IAA): approximately 670 times
degradation of mAID-EGFP-NLS reporter in clones ([1]; OsTIR1(F74G) clones compared with OsTIR1(F74A) clone): sharper degradation
recovery of reporter expression after exchange to culture medium containing no 5-Ph-IAA ([1]; OsTIR1(F74G), after degradation induction): fully recovered after three hours
DC50 ([1]; read-out: DC 50 values (concentrations for 50% degradation), mAID-EGFP-NLS reporter, OsTIR1(F74G), HCT116): 0.45 ± 0.01 nM
degradation of mAID-EGFP-POLD1 by Western blotting (mAID-EGFP-POLD1): degradation of mAID-EGFP-POLD1 was confirmed
degradation of mAID-EGFP-NLS reporter in clones [2]: degradation was induced
cell cycle phenotype after DHC1-mAC degradation ([3]; 1 μM): arrested in mitosis
mitotic spindle formation after DHC1-mAC degradation ([3]; 1 μM): strong defect in mitotic spindle formation
degradation of DHC1-mAC ([3]; 1 μM, clone with tags at both alleles): more efficiently degraded
cell phenotype after DHC1 degradation ([3]; after 24 hours): accumulation of cells in the mitotic period was observed
degradation of DHC1-mAID-Clover fused protein (microscopy) ([3]; after 24 hours): degraded a DHC1-mAID-Clover fused protein
degradation of DHC1 by Western blotting ([3]; clones #1 to #3): degradation of DHC1 and mAID was confirmed
colony formation efficiency (HCT116 cell): no change
influence on the cell cycle (HCT116 cell): no influence
toxicity (HCT116 cell): no toxicity
degradation of mAID-EGFP-CENPH by Western blotting (mAID-EGFP-CENPH): degradation of mAID-EGFP-CENPH was confirmed
cell cycle of RAD21-mAC degraded cells [4]: arrested in the G2/M phase
sister chromatid cohesion of RAD21-mAC degraded cell [4]: profound defect
T1/2 of RAD21-mAC ([4]; after the addition of a ligand): 11.7 min
degradation of mAID fused targets (SMC2, CTCF, POLR2A) [5]: rapidly degraded
growth of mAID-introduced yeast strains ([6]; plates containing 5 μM, OsTIR1(F74G or F74A)): strong growth inhibition

O=C(O)Cc1c[nH]c2ccccc12 [IAA]
degradation of mAID-EGFP-NLS reporter ([7]; 100 μM, four hours): the reporter was degraded
half-life of reporter degradation ([7]; conventional system, OsTIR1(WT)): 147.1 ± 12.5 min
DC50 ([7]; mAID-EGFP-NLS reporter, OsTIR1(WT), HCT116, read-out: DC 50 values (concentrations for 50% degradation)): 300 ± 30 nM
T1/2 of RAD21-mAC [8]: 26.5 min
growth of mAID-introduced yeast strains ([6]; 500 μM, OsTIR1(WT and F74A)): growth suppression
